Patent US10167262B2, “Herbicidal substituted 3-arylpyrazoles” (FMC CORPORATION, priority 2014, dated 2019)

How the values were obtained:
Format in all cases: in vivo
[1] = tested on: barnyardgrass (Echinochloa crus-galli); assay: Test A pre-/postemergence greenhouse herbicide test, visual injury rating 0-100
How it was run: (§1)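 Visual injury versus untreated controls, scored about 10 days after treatment on a 0 to 100 scale (0 = no effect, 100 = complete control). Applications were preemergence directed soil spray plus postemergence spray at one- to two-leaf stage, 2 to 10 cm plants.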

corn (Zea mays) = assay: as above
How it was run: as §1

[2] = tested on: giant foxtail (Setaria faberii); assay: as above
How it was run: as §1

[3] = tested on: large (Lg) crabgrass (Digitaria sanguinalis); assay: as above
How it was run: as §1

[4] = tested on: morningglory (Ipomoea spp.); assay: as above
How it was run: as §1

[5] = tested on: pigweed (Amaranthus retroflexus); assay: as above
How it was run: as §1

[6] = tested on: velvetleaf (Abutilon theophrasti); assay: as above
How it was run: as §1

[7] = tested on: wheat (Triticum aestivum); assay: as above
How it was run: as §1

[8] = tested on: barnyardgrass (Echinochloa crus-galli); assay: Test B flooded paddy test, plant response rating 0-100; details: Flood, 250 g ai/ha; scale 0 to 100 (0 no effect, 100 complete control); 13 to 15 days
How it was run: (§2)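 Pots were flooded to 3 cm above the soil surface at treatment, compound applied directly to the paddy water, and that depth held throughout. Plants were kept in a greenhouse for 13 to 15 days, then visually rated against untreated controls.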

[9] = tested on: ducksalad (Heteranthera limosa); assay: as above; details: Flood, 250 g ai/ha; scale 0 to 100 (0 no effect, 100 complete control); 13 to 15 days
How it was run: as §2

rice (Oryza sativa) = assay: as above; details: Flood, 250 g ai/ha; scale 0 to 100 (0 no effect, 100 complete control); 13 to 15 days
How it was run: as §2

[10] = tested on: sedge, umbrella (small-flower umbrella sedge, Cyperus difformis); assay: as above; details: Flood, 250 g ai/ha; scale 0 to 100 (0 no effect, 100 complete control); 13 to 15 days
How it was run: as §2

Row | Compound | Plant response rating (0 to 100 scale), Barnyardgrass ([1]; Postemergence, 125 g ai/ha) | Plant response rating (0 to 100 scale), Barnyardgrass ([1]; Postemergence, 500 g ai/ha) | Barnyardgrass plant response rating (0 = no effect, 100 = complete control) ([1]; Preemergence, 125 g ai/ha) | Plant response rating (0 to 100 scale), Barnyardgrass ([1]; Preemergence, 500 g ai/ha) | Plant response rating (0 to 100 scale), Corn (corn (Zea mays); Postemergence, 125 g ai/ha) | Plant response rating (0 to 100 scale), Corn (corn (Zea mays); Postemergence, 500 g ai/ha) | Corn plant response rating (0 = no effect, 100 = complete control) (corn (Zea mays); Preemergence, 125 g ai/ha) | Plant response rating (0 to 100 scale), Corn (corn (Zea mays); Preemergence, 500 g ai/ha) | Plant response rating (0 to 100 scale), Foxtail, Giant ([2]; Postemergence, 125 g ai/ha) | Plant response rating (0 to 100 scale), Foxtail, Giant ([2]; Postemergence, 500 g ai/ha) | Foxtail, Giant plant response rating (0 = no effect, 100 = complete control) ([2]; Preemergence, 125 g ai/ha) | Plant response rating (0 to 100 scale), Foxtail, Giant ([2]; Preemergence, 500 g ai/ha) | Plant response rating (0 to 100 scale), Crabgrass, Large ([3]; Postemergence, 125 g ai/ha) | Plant response rating (0 to 100 scale), Crabgrass, Large ([3]; Postemergence, 500 g ai/ha) | Crabgrass, Large plant response rating (0 = no effect, 100 = complete control) ([3]; Preemergence, 125 g ai/ha) | Plant response rating (0 to 100 scale), Crabgrass, Large ([3]; Preemergence, 500 g ai/ha) | Plant response rating, Barnyardgrass [8] | Plant response rating, Ducksalad [9] | Plant response rating, Rice (rice (Oryza sativa)) | Plant response rating, Sedge, Umbrella [10] | also measured
1 | CC(=O)Cn1cc(C(=O)c2ccccc2)c(-c2cc(Cl)cc(Cl)c2)n1 [Compound 45] | 0 | 0 | 0 | 0 | 0 | 0 | 0 | 0 | 0 | 0 | 0 | 0 | 0 | 0 | 0 | 0 | 0 | 0 | 0 | 0 | Morningglory plant response rating (0 = no effect, 100 = complete control) ([4]; Preemergence, 125 g ai/ha): 0; Plant response rating (0 to 100 scale), Morningglory ([4]; Preemergence, 500 g ai/ha): 0; Plant response rating (0 to 100 scale), Pigweed ([5]; Postemergence, 125 g ai/ha): 40; Plant response rating (0 to 100 scale), Pigweed ([5]; Postemergence, 500 g ai/ha): 60; Pigweed plant response rating (0 = no effect, 100 = complete control) ([5]; Preemergence, 125 g ai/ha): 0; Plant response rating (0 to 100 scale), Pigweed ([5]; Preemergence, 500 g ai/ha): 70; Plant response rating (0 to 100 scale), Velvetleaf ([6]; Postemergence, 125 g ai/ha): 60; Plant response rating (0 to 100 scale), Velvetleaf ([6]; Postemergence, 500 g ai/ha): 80; Velvetleaf plant response rating (0 = no effect, 100 = complete control) ([6]; Preemergence, 125 g ai/ha): 20; Plant response rating (0 to 100 scale), Velvetleaf ([6]; Preemergence, 500 g ai/ha): 30; Plant response rating (0 to 100 scale), Wheat ([7]; Postemergence, 125 g ai/ha): 0; Plant response rating (0 to 100 scale), Wheat ([7]; Postemergence, 500 g ai/ha): 0; Wheat plant response rating (0 = no effect, 100 = complete control) ([7]; Preemergence, 125 g ai/ha): 0; Plant response rating (0 to 100 scale), Wheat ([7]; Preemergence, 500 g ai/ha): 0
2 | O=C(c1cncc(F)c1)c1c[nH]nc1-c1cc(F)cc(Cl)c1 [Compound 22] | 0 | 0 | 0 | 0 | 0 | 0 | 0 | 0 | 0 | 0 | 0 | 0 | 0 | 0 | 0 | 0 | 0 | 0 | 0 | 0 | Plant response rating (0 to 100 scale), Morningglory ([4]; Postemergence, 125 g ai/ha): 0; Plant response rating (0 to 100 scale), Morningglory ([4]; Postemergence, 500 g ai/ha): 0; Morningglory plant response rating (0 = no effect, 100 = complete control) ([4]; Preemergence, 125 g ai/ha): 0; Plant response rating (0 to 100 scale), Morningglory ([4]; Preemergence, 500 g ai/ha): 0; Plant response rating (0 to 100 scale), Pigweed ([5]; Postemergence, 125 g ai/ha): 70; Plant response rating (0 to 100 scale), Pigweed ([5]; Postemergence, 500 g ai/ha): 100; Pigweed plant response rating (0 = no effect, 100 = complete control) ([5]; Preemergence, 125 g ai/ha): 60; Plant response rating (0 to 100 scale), Pigweed ([5]; Preemergence, 500 g ai/ha): 100; Plant response rating (0 to 100 scale), Velvetleaf ([6]; Postemergence, 125 g ai/ha): 60; Plant response rating (0 to 100 scale), Velvetleaf ([6]; Postemergence, 500 g ai/ha): 80; Velvetleaf plant response rating (0 = no effect, 100 = complete control) ([6]; Preemergence, 125 g ai/ha): 30; Plant response rating (0 to 100 scale), Velvetleaf ([6]; Preemergence, 500 g ai/ha): 60; Plant response rating (0 to 100 scale), Wheat ([7]; Postemergence, 125 g ai/ha): 0; Plant response rating (0 to 100 scale), Wheat ([7]; Postemergence, 500 g ai/ha): 0; Wheat plant response rating (0 = no effect, 100 = complete control) ([7]; Preemergence, 125 g ai/ha): 0; Plant response rating (0 to 100 scale), Wheat ([7]; Preemergence, 500 g ai/ha): 0
3 | O=C(c1ccccc1)c1cn(C(=O)C2CC2)nc1-c1cc(Cl)cc(Cl)c1 [Compound 26] | 0 | 0 | 0 | 0 | 0 | 0 | 0 | 0 | 0 | 0 | 0 | 0 | 0 | 0 | 0 | 0 | 0 | 0 | 0 | 0 | Plant response rating (0 to 100 scale), Morningglory ([4]; Postemergence, 125 g ai/ha): 0; Plant response rating (0 to 100 scale), Morningglory ([4]; Postemergence, 500 g ai/ha): 0; Morningglory plant response rating (0 = no effect, 100 = complete control) ([4]; Preemergence, 125 g ai/ha): 0; Plant response rating (0 to 100 scale), Morningglory ([4]; Preemergence, 500 g ai/ha): 0; Plant response rating (0 to 100 scale), Pigweed ([5]; Postemergence, 125 g ai/ha): 40; Plant response rating (0 to 100 scale), Pigweed ([5]; Postemergence, 500 g ai/ha): 80; Pigweed plant response rating (0 = no effect, 100 = complete control) ([5]; Preemergence, 125 g ai/ha): 0; Plant response rating (0 to 100 scale), Pigweed ([5]; Preemergence, 500 g ai/ha): 0; Plant response rating (0 to 100 scale), Velvetleaf ([6]; Postemergence, 125 g ai/ha): 50; Plant response rating (0 to 100 scale), Velvetleaf ([6]; Postemergence, 500 g ai/ha): 80; Velvetleaf plant response rating (0 = no effect, 100 = complete control) ([6]; Preemergence, 125 g ai/ha): 0; Plant response rating (0 to 100 scale), Velvetleaf ([6]; Preemergence, 500 g ai/ha): 0; Plant response rating (0 to 100 scale), Wheat ([7]; Postemergence, 125 g ai/ha): 0; Plant response rating (0 to 100 scale), Wheat ([7]; Postemergence, 500 g ai/ha): 0; Wheat plant response rating (0 = no effect, 100 = complete control) ([7]; Preemergence, 125 g ai/ha): 0; Plant response rating (0 to 100 scale), Wheat ([7]; Preemergence, 500 g ai/ha): 0
4 | CCn1cc(C(=O)c2ccccc2)c(-c2cc(F)cc(Br)c2)n1 [Compound 10] |  |  |  |  |  |  |  |  |  |  |  |  |  |  |  |  | 0 | 0 | 0 | 0 | Plant response rating (0 to 100 scale), Barnyardgrass ([1]; Postemergence, 1000 g ai/ha): 0; Plant response rating (0 to 100 scale), Barnyardgrass ([1]; Preemergence, 1000 g ai/ha): 0; Plant response rating (0 to 100 scale), Corn (corn (Zea mays); Postemergence, 1000 g ai/ha): 0; Plant response rating (0 to 100 scale), Corn (corn (Zea mays); Preemergence, 1000 g ai/ha): 0; Plant response rating (0 to 100 scale), Foxtail, Giant ([2]; Postemergence, 1000 g ai/ha): 0; Plant response rating (0 to 100 scale), Foxtail, Giant ([2]; Preemergence, 1000 g ai/ha): 0; Plant response rating (0 to 100 scale), Crabgrass, Large ([3]; Postemergence, 1000 g ai/ha): 0; Plant response rating (0 to 100 scale), Crabgrass, Large ([3]; Preemergence, 1000 g ai/ha): 0; Plant response rating (0 to 100 scale), Morningglory ([4]; Postemergence, 1000 g ai/ha): 0; Plant response rating (0 to 100 scale), Morningglory ([4]; Preemergence, 1000 g ai/ha): 0; Plant response rating (0 to 100 scale), Pigweed ([5]; Postemergence, 1000 g ai/ha): 90; Plant response rating (0 to 100 scale), Pigweed ([5]; Preemergence, 1000 g ai/ha): 100; Plant response rating (0 to 100 scale), Velvetleaf ([6]; Postemergence, 1000 g ai/ha): 90; Plant response rating (0 to 100 scale), Velvetleaf ([6]; Preemergence, 1000 g ai/ha): 90; Plant response rating (0 to 100 scale), Wheat ([7]; Postemergence, 1000 g ai/ha): 0; Plant response rating (0 to 100 scale), Wheat ([7]; Preemergence, 1000 g ai/ha): 0
